According to patent publication CN103285022A, “用于制备治疗多囊卵巢综合征的中药单体组合物及其制备方法” (Second Military Medical University SMMU, priority 2013, dated 2013):

Experiments:
[1] = system: liver [肝脏]; format: in vivo, rat; details: for hepatotoxicity: conclusion, given together (27/200/100 mg/kg), 28 days
[2] = system: kidney [肾脏]; assay: Kidney histopathology / renal safety; format: in vivo, rat; details: conclusion; given together (27/200/100 mg/kg), 28 days
[3] = system: polycystic ovary syndrome rat model [多囊卵巢综合征大鼠模型]; assay: Oestrous cycle by vaginal exfoliative cytology, DHEA-induced PCOS rats; format: in vivo; details: oral gavage 28 days, then 10 days of vaginal cytology, combination 27/200/100 mg/kg, spironolactone 20 mg/kg
[4] = system: polycystic ovary syndrome rat model [多囊卵巢综合征动物模型]; assay: Ovarian wet weight and ovarian coefficient; format: in vivo; details: 28 days gavage; ovarian wet weight significantly lower than model group
[5] = system: CYP17 mRNA; assay: RT-PCR of ovarian tissue, CYP17 mRNA; format: in vivo, rat; details: vs model group, 28 days gavage
[6] = system: AR mRNA; assay: RT-PCR of ovarian tissue, AR mRNA; format: in vivo, rat; details: vs model group, 28 days gavage
[7] = system: 3β-HSD mRNA; assay: RT-PCR of ovarian tissue, 3β-HSD mRNA; format: in vivo, rat; details: vs model group, 28 days gavage

Row | SMILES | hepatotoxicity [1] | nephrotoxicity [2] | sexual cycle recovery rate [3] | increase of ovarian volume and wet weight in model rats, effect of treatment [4] | liver histopathology ([1]; rat, in vivo) | CYP17 mRNA expression in ovarian tissue [5] | AR mRNA expression in ovarian tissue [6] | 3β-HSD mRNA expression in ovarian tissue [7]
1 | O=c1c(O)c(-c2ccc(O)c(O)c2)oc2cc(O)cc(O)c12 [槲皮素, 槲皮素(Quercetin)] | 均不具有肝肾毒性 | 均不具有肝肾毒性 |  |  |  |  |  | 
2 | CC(=O)S[C@@H]1CC2=CC(=O)CC[C@]2(C)[C@H]2CC[C@@]3(C)[C@@H](CC[C@@]34CCC(=O)O4)[C@H]12 [螺内酯, 螺内酯(Spironolactone)] |  |  | 80% | 均可以逆转这种情况 | 个别出现肝细胞脂肪样变性,胞浆透明度增加,细胞胞浆不清,部分细胞核崩解,肝板破坏,汇管区增粗 | 显著降低 | 显著降低 | 显著降低
3 | C[C@H]1COC2=C1C(=O)C(=O)c1c2ccc2c1CCCC2(C)C [隐丹参酮, 隐丹参酮(Cryptotanshinone)] | 均不具有肝肾毒性 | 均不具有肝肾毒性 |  |  |  |  |  | 
4 | O=C(O)[C@H]1O[C@@H](Oc2cc3oc(-c4ccccc4)cc(=O)c3c(O)c2O)[C@H](O)[C@@H](O)[C@@H]1O [黄芩苷, 黄芩苷(Baicalin)] | 均不具有肝肾毒性 | 均不具有肝肾毒性 |  |  |  |  |  | 
